Assay results reported in patent US8354414B2, “Substituted bicyclic pyrimidines” (Cephalon, Inc, priority 2006, dated 2013).
Read-outs that look alike come from different tables or passages of the source.

What was measured:
[1] = molecular target: T1, His6-GSK-3β (Homo sapiens, UniProt P49841); test: Inhibition of His6-GSK-3β kinase activity (ELISA-based format, time-resolved fluorescence readout); type: biochemical; conditions: read-out: GSK3β IC50
T1 construct: made in house; host or cells: Sf21 insect cells (baculovirus)
T1 sequence (P49841 2-419): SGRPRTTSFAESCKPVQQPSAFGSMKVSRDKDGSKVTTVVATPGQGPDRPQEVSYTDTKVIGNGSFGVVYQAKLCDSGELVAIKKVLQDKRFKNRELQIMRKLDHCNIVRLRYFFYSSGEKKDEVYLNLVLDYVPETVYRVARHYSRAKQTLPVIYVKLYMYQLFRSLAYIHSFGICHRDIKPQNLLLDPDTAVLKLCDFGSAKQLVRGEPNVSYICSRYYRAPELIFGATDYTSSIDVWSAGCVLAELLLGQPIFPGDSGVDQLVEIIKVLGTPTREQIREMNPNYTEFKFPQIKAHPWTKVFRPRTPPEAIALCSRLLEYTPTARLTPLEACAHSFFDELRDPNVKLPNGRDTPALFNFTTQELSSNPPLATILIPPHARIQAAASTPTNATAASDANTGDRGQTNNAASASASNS
Outline: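 Plate-bound recombinant GST-Rb substrate was phosphorylated for 30 min at 37° C by baculovirus-expressed His6-GSK-3β (200 ng/ml) at 20 μM ATP, 10 mM MgCl2, 2.5% DMSO. Europium time-resolved fluorescence of anti-phospho-Ser780 Rb signal gave inhibition, fitted to IC50.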

[2] = molecular target: T2, CDK5/GST-p25 (Homo sapiens, UniProt Q00535); test: Inhibition of CDK5/GST-p25 kinase activity (ELISA with time-resolved fluorescence readout); type: biochemical
T2 construct: The final construct, encoding for full-length human CDK5; made in house; host or cells: Sf21 insect cells (baculovirus co-infection)
T2 sequence (Q00535 whole entry): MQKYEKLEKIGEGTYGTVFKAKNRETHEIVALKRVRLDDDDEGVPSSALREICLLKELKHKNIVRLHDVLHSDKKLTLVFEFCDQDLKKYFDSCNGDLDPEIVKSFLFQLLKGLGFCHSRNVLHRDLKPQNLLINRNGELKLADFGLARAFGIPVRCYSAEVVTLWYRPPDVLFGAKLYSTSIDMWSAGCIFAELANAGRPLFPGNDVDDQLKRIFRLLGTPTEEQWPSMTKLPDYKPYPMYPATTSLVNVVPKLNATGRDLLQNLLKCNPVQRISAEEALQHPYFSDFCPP
T2 sequence (Q15078 108-307 partner limits assumed): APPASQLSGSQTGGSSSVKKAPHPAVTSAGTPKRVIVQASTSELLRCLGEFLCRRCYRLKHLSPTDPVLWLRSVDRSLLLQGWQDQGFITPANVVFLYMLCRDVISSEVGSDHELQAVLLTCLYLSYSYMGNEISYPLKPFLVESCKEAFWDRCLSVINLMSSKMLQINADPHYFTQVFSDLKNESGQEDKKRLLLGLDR
Outline: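 The substrate, GST-Rb(773-928), was immobilised on plates and phosphorylated for 20 min at 37 °C by 2 ng/ml CDK5/GST-p25 in HEPES pH 7.2 with 10 µM ATP and 10 mM MgCl2. Both proteins were human and co-expressed in insect cells. Ser-780 phosphorylation was read by europium time-resolved fluorescence and converted to IC50.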

Compound	IC50 ([1]; class symbols)	IC50 ([2]; class symbols)	melting point	inhibition at 10 µM [2]	IC50 ([1]; numeric bounds)	IC50 ([2]; numeric bounds)
CCCn1cc2c(C3C(=O)Nc4ccc(Br)cc43)nc(NCc3ccncc3)nc2n1 (stereo not drawn) [Example 190, 5-Bromo-3-{2-propyl-6-[(pyridine-4-ylmethyl)-amino]-2H-pyrazolo[3,4-d]pyrimidin-4-yl}-1,3-dihydro-indol-2-one]	< 300 nM	< 300 nM	> 300 °C	–	–	–
O=C1Nc2ccc(F)cc2C1c1ncnc2c1cnn2C1CCCCC1 (stereo not drawn) [Example 72, 3-(1-Cyclohexyl-1H-pyrazolo[3,4-d]pyrimidin-4-yl)-5-fluoro-1,3-dihydro-indol-2-one]	> 10000 nM	> 10000 nM	282 to 286 °C	–	–	–
CC(=O)NCCNc1nc(C2C(=O)Nc3ccc(C#N)cc32)c2cn(C3CCCC3)nc2n1 (stereo not drawn) [Example 151, 3-(6-(2-acetylamino-ethylamino)-2-cyclopentyl-2H-pyrazolo [3,4-d]pyrimidin-4-yl)-2-oxo-2,3-dihydro-1H-indole-5-carbonitrile]	< 300 nM	< 300 nM	> 300 °C	–	–	–
O=C1Nc2ccc(F)cc2C1c1ncnc2nn(C3CCCC3)cc12 (stereo not drawn) [Example 40, 3-(2-Cyclopentyl-2H-pyrazolo[3,4-d]pyrimidin-4-yl)-5-fluoro-1,3-dihydro-indol-2-one]	300 to 3000 nM	< 300 nM	256 to 260 °C	–	–	–
O=C1Nc2ccccc2C1c1ncnc2nn(C3CCCC3)cc12 (stereo not drawn) [Example 37, 3-(2-Cyclopentyl-2H-pyrazolo[3,4-d]pyrimidin-4-yl)-1,3-dihydro-indo-2-one]	300 to 3000 nM	300 to 3000 nM	289 to 292 °C	–	–	–
CCCn1cc2c(C3C(=O)Nc4ccc(Br)cc43)nc(NCCN3CCOCC3)nc2n1 (stereo not drawn) [Example 202, 5-Bromo-3-[6-(2-morpholin-4-yl-ethylamino)-2-propyl-2H-pyrazolo [3,4-d]pyrimidin-4-yl]-1,3-dihydro-indol-2-one]	< 300 nM	< 300 nM	299 to 303 °C	–	–	–
N#Cc1ccc2c(c1)C(c1ncnc3nn(C4CCCC4)cc13)C(=O)N2 (stereo not drawn) [Example 30, 3-(2-Cyclopentyl-2H-pyrazolo[3,4-d]pyrimidin-4-yl)-2-oxo-2,3-dihydro-1H-indole-5-carbonitrile]	< 300 nM	< 300 nM	> 300 °C (dec.)	–	–	–
N#Cc1cccc2c1NC(=O)C2c1ncnc2nn(C3CCCC3)cc12 (stereo not drawn) [Example 39, 3-(2-Cyclopentyl-2H-pyrazolo[3,4-d]pyrimidin-4-yl)-2-oxo-2,3-dihydro-1H-indole-7-carbonitrile]	300 to 3000 nM	< 300 nM	> 380 °C	–	–	–
CCOCCn1cc2c(C3C(=O)Nc4ccc(Cl)cc43)nc(NCCN3CCOCC3)nc2n1 (stereo not drawn) [Example 217, 5-Chloro-3-[2-(2-ethoxy-ethyl)-6-(2-morpholin-4-yl-ethylamino)-2H-pyrazolo [3,4-d]pyrimidin-4-yl]-1,3-dihydro-indol-2-one]	< 300 nM	< 300 nM	293 to 294 °C	–	–	–
N#Cc1ccc2c(c1)C(c1ncnc3[nH]ncc13)C(=O)N2 (stereo not drawn) [Example 109, 2-Oxo-3-(1H-pyrazolo[3,4-d]pyrimidin-4-yl)-2,3-dihydro-1H-indole-5-carbonitrile]	< 300 nM	< 300 nM	> 300 °C (dec.)	–	–	–
C[C@@H](O)CNc1nc(C2C(=O)Nc3ccc(Cl)cc32)c2cn(C3CCCC3)nc2n1 (stereo partly drawn) [Example 375]	< 300 nM	–	> 300 °C	62%	–	–
CCCn1cc2c(C3C(=O)Nc4ccc(Br)cc43)nc(NCCN(C)C)nc2n1 (stereo not drawn) [Example 197, 5-Bromo-3-[6-(2-dimethylamino-ethylamino)-2-propyl-2H-pyrazolo[3,4-d]pyrimidin-4-yl]-1,3-dihydro-indol-2-one]	< 300 nM	< 300 nM	270 to 274 °C	–	–	–
O=C1Nc2ccc(C(F)(F)F)cc2C1c1nc(NCCc2cccnc2)nc2nn(C3CCCC3)cc12 (stereo not drawn) [Example 160, 3-[2-cyclopentyl-6-(2-pyridin-3-yl-ethylamino)-2H-pyrazolo[3,4-d]pyrimidin-4-yl]-5-trifluoromethyl-1,3-dihydro-indol-2-one]	< 300 nM	> 10000 nM	278 to 280 °C	–	–	–
O=C1Nc2ccc(C(F)(F)F)cc2C1c1nc(Cl)nc2nn(C3CCCC3)cc12 (stereo not drawn) [Example 153, 3-(6-Chloro-2-cyclopentyl-2H-pyrazolo [3,4-d]pyrimidin-4-yl)-5-trifluoromethyl-1,3-dihydro-indol-2-one]	–	> 10000 nM	> 300 °C	–	> 3000 nM	–
N#Cc1ccc2c(c1)NC(=O)C2c1ncnc2c1cnn2C1CCCCC1 (stereo not drawn) [Example 69, 3-(1-Cyclohexyl-1H-pyrazolo[3,4-d]pyrimidin-4-yl)-2-oxo-2,3-dihydro-1H-indole-6-carbonitrile]	> 10000 nM	–	> 300 °C	–	–	> 3000 nM
CC(=O)NCCNc1nc(C2C(=O)Nc3ccc(C(F)(F)F)cc32)c2cn(C3CCCC3)nc2n1 (stereo not drawn) [Example 163, 3-(2-cyclopentyl-6-(2-acetylamino-ethylamino)-2H-pyrazolo [3,4-d]pyrimidin-4-yl)-5-trifluoromethyl-1,3-dihydro-indol-2-one]	< 300 nM	300 to 3000 nM	> 300 °C	–	–	–
O=C1Nc2c(F)cc(F)cc2C1c1ncnc2c1cnn2C1CCCC1 (stereo not drawn) [Example 61, 3-(1-cyclopentyl-1H-pyrazolo[3,4-d]pyrimidin-4-yl)-5,7-difluoro-1,3-dihydro-indol-2-one]	> 10000 nM	> 10000 nM	> 300 °C	–	–	–
CN(C)CCNc1nc(C2C(=O)Nc3ccc(Cl)cc32)c2cn(C3CCCC3)nc2n1 (stereo not drawn) [Example 376, 5-Chloro-3-[2-cyclopentyl-6-(2-dimethylamino-ethylamino)-2H-pyrazolo [3,4-d]pyrimidin-4-yl]-1,3-dihydro-indol-2-one]	300 to 3000 nM	> 10000 nM	145 to 148 °C	–	–	–
C[C@H](O)CNc1nc(C2C(=O)Nc3ccc(Br)cc32)c2cn(C)nc2n1 (stereo partly drawn) [Example 304, 5-Bromo-3-[6-(2-(S)-hydroxypropylamino)-2-methyl-2H-pyrazolo [3,4-d]pyrimidin-4-yl]-1,3-dihydro-indol-2-one]	< 300 nM	< 300 nM	338 to 340 °C	–	–	–
O=C1Nc2ccc(C(F)(F)F)cc2C1c1ncnc2c1cnn2C1CCCC1 (stereo not drawn) [Example 56, 3-(1-Cyclopentyl-1H-pyrazolo [3,4-d]pyrimidine-4-yl)-5-trifluoromethyl-1,3-dihydro-indol-2-one]	> 10000 nM	> 10000 nM	> 300 °C	–	–	–
CCCn1cc2c(C3C(=O)Nc4ccc(Br)cc43)nc(NC[C@H](C)O)nc2n1 (stereo partly drawn) [Example 194, 5-Bromo-3-[6-((S)-2-hydroxy-propylamino)-2-propyl-2H-pyrazolo[3,4-d]pyrimidin-4-yl]-1,3-dihydro-indol-2-one]	< 300 nM	< 300 nM	322 to 326 °C	–	–	–
CCCn1cc2c(C3C(=O)Nc4ccc(Br)cc43)nc(NCCN)nc2n1 (stereo not drawn) [Example 200, 3-[6-(2-Amino-ethylamino)-2-propyl-2H-pyrazolo [3,4-d]pyrimidin-4-yl]-5-bromo-1,3-dihydro-indol-2-one]	< 300 nM	< 300 nM	272 to 276 °C	–	–	–
CN(C)CCCNc1nc(C2C(=O)Nc3ccc(Br)cc32)c2cn(C3CCCC3)nc2n1 (stereo not drawn) [Example 371, 5-Bromo-3-[2-cyclopentyl-6-(3-dimethylamino-propylamino)-2H-pyrazolo [3,4-d]pyrimidin-4-yl]-1,3-dihydro-indol-2-one]	< 300 nM	–	198 to 200 °C	–	–	> 3000 nM
CCCn1cc2c(C3C(=O)Nc4ccc(Cl)cc43)ncnc2n1 (stereo not drawn) [Example 98, 5-Chloro-3-(2-propyl-2H-pyrazolo[3,4-d]pyrimidin-4-yl)-1,3-dihydro-indol-2-one]	< 300 nM	< 300 nM	302 to 306 °C	–	–	–
O=C1Nc2ccccc2C1c1nc(NCc2cccnc2)nc2nn(C3CCCC3)cc12 (stereo not drawn) [Example 156, 3-{2-cyclopentyl-6-[(pyridin-3-ylmethyl)-amino]-2H-pyrazolo [3,4-d]pyrimidin-4-yl}-1,3-dihydro-indol-2-one]	< 300 nM	< 300 nM	216 to 218 °C	–	–	–
COCCNc1nc(C2C(=O)Nc3ccc(Cl)cc32)c2cn(C3CCCC3)nc2n1 (stereo not drawn) [Example 277, 5-Chloro-3-[2-cyclopentyl-6-(2-methyoxy-ethylamino)-2H-pyrazolo[3,4-d]pyrimidin-4-yl]-1,3-dihydro-indol-2-one]	< 300 nM	< 300 nM	249 to 259 °C	–	–	–
CC(C)CNc1nc(C2C(=O)Nc3ccc(C#N)cc32)c2cn(C3CCCC3)nc2n1 (stereo not drawn) [Example 165, 3-(2-cyclopentyl-6-isobutylamino-2H-pyrazolo [3,4-d]pyrimidin-4-yl)-2-oxo-2,3-dihydro-1H-indole-5-carbonitrile]	< 300 nM	< 300 nM	297 to 298.5 °C	–	–	–
O=C1Nc2cc(F)ccc2C1c1ncnc2c1cnn2C1CCCC1 (stereo not drawn) [Example 66, 3-(1-Cyclopentyl-1H-pyrazolo[3,4-d]pyrimidin-4-yl)-6-fluoro-1,3-dihydro-indol-2-one]	–	> 10000 nM	230 to 233 °C	–	> 3000 nM	–
